Laboratory results: patent US8017828B2, “Utilization of rare sugars in plant or microorganism” (Shikoku Research Institute Incorporated, priority 2004, dated 2011)

Tests used:
Assay type in all cases: in vivo
[1] = tested on: Arabidopsis thaliana Lan dsberg erecta (LER); assay: Germination of Arabidopsis thaliana with 8 ketoses; settings: 100 mM aqueous solution
Description: An effect of 8 types of ketoses on germination of Arabidopsis thaliana LER series which was an experimental plant was examined.
Two sheets of filter paper were placed in a dish with a diameter of 3.5 cm, and 30 seeds of Arabidopsis thaliana Lan dsberg erecta (LER) were sown per dish, and 0.5 mL of a treatment liquid was poured therein. Then, the dishes were placed in an environment control chamber under the condition of a constant temperature of 25° C. and 24-hour day length (fluorescent lamp, 70 μmol/m^2/s). After the sowing, a survey was carried out with regard to the number of seeds that germinated at 24-hour interval. As the treatment liquid, 100 mM, 10 mM and 1 mM aqueous solutions of any of D-fructose, D-psicose, D-tagatose, D-sorbose, L-fructose, L-psicose, L-tagatose and L-sorbose, and distilled water were used. The procedure was repeated three times for the respective treatment liquids.

[2] = tested on: Fusarium oxysporum; assay: Table 12: plants with or without Fusarium oxysporum, seed and medium treated with D-psicose
[3] = tested on: strawberry plant (variety: “Sachinoka”); assay: Spraying of sugar solution during soilless culture of strawberry; settings: 0.2% (w/v) sprayed weekly
Description: In the process of cultivation of strawberry, an effect of spraying D-psicose was examined.
A strawberry plant (variety: “Sachinoka”) was used in an experiment. Strawberry seedlings were transplanted for permanent planting to a mixed culture medium of rockwool and peat moss, and then, by using Otsuka A prescription hydroponic nutrient solution, soilless culture was carried out in a glass house. During the cultivation, on a weekly basis, water, a 0.2% (w/v) D-glucose solution or a 0.2% (w/v) D-psicose solution was sprayed onto the whole plant. As for the number of strawberry plants, 17, 19 and 18 plants were used for the groups, respectively, and permanent planting was carried out on Sep. 24, 2004, and spraying was started from Oct. 22, 2004. A survey was carried out with regard to the growth conditions, the yield of fruits, the quality of fruits and the like by Mar. 7, 2005.

[4] = tested on: Vitis kiusiana Momiyama; assay: Bud flush of dormant branch cuttings of wild grape
Description: Matured branches of a Japanese wild grape Vitis kiusiana Momiyama, in which rooting of cuttings is difficult (Mochioka et al., Plant Tissue Culture 13: 139-145, 1996; Journal of ASEV JAPAN 13: 2-8, 2002) and dormancy of buds is deep (Mochioka et al., Journal of Japanese Society for Horticultural Science, 65: 49-54, 1996) were collected in January during the dormant stage, and stored under refrigeration in such a manner that they were not dried. On March 11, they were prepared to have one bud. After each cutting base was immersed in a 3% aqueous solution of D-psicose (supplemented with a spreading agent, Approach BI at 0.2%) for 24 hours, on the following day March 12, it was planted in a Vermiculite bed and placed in a temperature-controlled chamber at 25° C. and 16-hour day length, and the bud flush rate with time was measured. The timing of bud flush was determined to be a time when bud scale leaves fall off and about 50% of the tomentum that protects the bud appears. In a control plot, the cutting base was immersed in distilled water supplemented with 0.2% Approach BI for 24 hours, and then, subjected to the same treatment as described above.
In the survey of the bud flush rate, 9 cuttings were used for each plot and the procedure was repeated three times and an average was obtained.

[5] = Fusarium oxysporum added, D-psicose seed 0.01%, medium 0.01%
[6] = Fusarium oxysporum added, D-psicose seed 0.01%, medium non
[7] = Fusarium oxysporum added, D-psicose seed 0.10%, medium 0.10%
[8] = Fusarium oxysporum added, D-psicose seed 0.10%, medium non
[9] = Fusarium oxysporum without addition, D-psicose seed 0.10%, medium non

Q: Which results are given for O=C(CO)[C@H](O)[C@H](O)[C@H](O)CO [D-psicose]?
A: inhibition of germination [1]: clearly inhibited; Aerial part weight [2, 5]: 3.1 g; Leaf browning ratio [2, 5]: 5%; Plant length [2, 5]: 17.6 cm; Survival rate [2, 5]: 50%; Vascular bundle browning ratio [2, 5]: 45%; Aerial part weight [2, 6]: 1.9 g; Leaf browning ratio [2, 6]: 100%; Plant length [2, 6]: 14.5 cm; Survival rate [2, 6]: 28%; Vascular bundle browning ratio [2, 6]: 39%; Aerial part weight [2, 7]: 3.3 g; Leaf browning ratio [2, 7]: 13%; Plant length [2, 7]: 13.8 cm; Survival rate [2, 7]: 25%; Vascular bundle browning ratio [2, 7]: 38%; Aerial part weight [2, 8]: 2.2 g; Leaf browning ratio [2, 8]: 100%; Plant length [2, 8]: 13.9 cm; Survival rate [2, 8]: 16%; Vascular bundle browning ratio [2, 8]: 60%; Aerial part weight [2, 9]: 2.2 g; Leaf browning ratio [2, 9]: 0%; Plant length [2, 9]: 17.8 cm; Survival rate [2, 9]: 100%; Vascular bundle browning ratio [2, 9]: 0%; acidity in the fruit [3]: improvement; content of vitamin C in the fruit [3]: improvement; flower-bud formation [3]: promotion; growth and total yield [3]: no significant difference; harvesting time [3]: acceleration; bud flush rate compared with control plot ([4]; 3% aqueous solution 24 hours, whole period): higher; timing of bud flush ([4]; cutting base immersed in 3% aqueous solution 24 hours, control mid-April): from late March
